From patent publication US4264572A, “X-ray contrast media” (Schering Aktiengesellschaft, priority 1978, dated 1981)

What was measured:
[1] = coefficient of distribution in 1-butanol/tris-HCl buffer; format: physicochemical; conditions: pH 7.6, 1-butanol/tris-HCl buffer; meglumine salts
From the text: It is furthermore seen from this table that the interaction of the new compounds with proteins is much less than that of the known comparison substances.

[2] = tested on: proteins
[3] = tested on: rat; assay: general tolerance, LD50 i.v. in rat (7 days); format: in vivo; conditions: meglumine salts
[4] = tested on: rat; assay: neural tolerance, ED50 pericerebral in rat (24 hours); conditions: meglumine salts

Row | SMILES | Coefficient of Distribution [1] | Protein Bond [2] | Tolerance LD50 i.v. (7 days) [3] | Tolerance ED50 pericerebral (24 hours) [4]
1 | CNC(=O)c1c(I)c(C(=O)NCC(=O)Nc2c(I)c(C(=O)O)c(I)c(C(=O)NCCO)c2I)c(I)c(N(C)C(=O)COC)c1I [A, 5-(3-N-methylmethoxyacetamido-5-methylcarbamoyl-2,4,6-triiodine-benzamidoacetamido)-N-(2-hydroxyethyl)-2,4,6-triiodine-isophthalamic acid] | < 0.001 | 2.5 | ~ 10,000 mg I/kg of rat | ~ 100 mg I/kg of rat
2 | CNC(=O)c1c(I)c(C(=O)NCC(=O)Nc2c(I)c(C(=O)O)c(I)c(C(=O)NCCO)c2I)c(I)c(N(C)C(C)=O)c1I [B, 5-(3-N-methyl-acetamido-2,4,6-triiodine-5-methylcarbamoyl-benzamido-acetamido)-N-(2-hydroxyethyl)-2,4,6-triiodine-isophthalamic acid] | 0.033 | 6.8 | ~ 7,500 mg I/kg of rat | ~ 40 mg I/kg of rat
3 | CNC(=O)c1c(I)c(NC(C)=O)c(I)c(C(=O)O)c1I [C, 5-acetamido-2,4,6-triiodine-N-methyl-isophthalamic acid] | 0.017 | 7.6 | ~ 7,500 mg I/kg of rat | 60 mg I/kg of rat
